Earlier results, collected in patent publication US20200138792A1, “PHARMACEUTICAL COMBINATIONS OF ZONISAMIDE AND PRAMIPEXOLE, AND RELATED METHODS, FOR TREATING SYNUCLEINOPATHIES” (CHASE THERAPEUTICS CORPORATION, priority 2017, published 2020).

Tests used:
[1] = 5 mg/day of pramipexole
[2] = tested on: human neuroblastoma SH-SY5Y cells
alpha-synuclein = alpha-synuclein (Homo sapiens, UniProt P37840)
[3] = target: human wild-type alpha-synuclein (Homo sapiens, UniProt P37840); settings: hydrogen peroxide plus cytochrome c
A53T α-synuclein = target: T1, A53T α-synuclein (Homo sapiens, UniProt P37840, A53T); settings: 40 mg/kg/day oral
T1 construct: host or cells: rat brain in vivo, transduced with a viral vector

[4] = tested on: nigral TH-positive neurons; settings: 20 mg/kg, MPTP-treated mice
[5] = tested on: nigrostriatal dopaminergic neurons; settings: chronic administration
[6] = 25 mg-50 mg, alone or with levodopa
nigral dopamine neurons = settings: 30 mg/kg injection, 6-OHDA mice

| SMILES | toxic effects of rotenone on dopaminergic neurons (dopaminergic neurons; mouse PD model) | immunoreactivity for alpha-synuclein (dopaminergic neurons; rotenone mouse PD model) | nausea, patients affected [1] | vomiting, patients affected [1] | patients not able to complete the study ([1]; presumably intolerable GI adverse events) | aggregation of alpha-synuclein [2] | in vitro oligomerization and aggregation of alpha-synuclein (alpha-synuclein) | in vitro oligomerization of human wild-type alpha-synuclein [3] | survival of nigrostriatal dopamine neurons (A53T α-synuclein) | pace of degeneration vs control group (A53T α-synuclein; four weeks after injection of viral vector for A53T α-synuclein gene) | loss of nigral TH-positive neurons [4] | striatal dopamine depletion [4] | brain-derived neurotrophic factor content in striatum and ventral midbrain vs saline [5] | survival of nigrostriatal dopaminergic neurons, striatal dopaminergic terminals and motor function vs saline [5] | motor symptoms in patients with PD [6] | loss of nigral dopamine neurons (nigral dopamine neurons) |
| --- | --- | --- | --- | --- | --- | --- | --- | --- | --- | --- | --- | --- | --- | --- | --- | --- |
| CCCN[C@H]1CCc2nc(N)sc2C1 [pramipexole, (S)-6-propylamino-4,5,6,7-tetrahydro-1,3-benzothiazole-2-amine] | inhibits | reducing | 76% | 39% | 36% | inhibit | diminishes synuclein oligomer formation | decreases |  |  |  |  |  |  |  |  |
| NS(=O)(=O)Cc1noc2ccccc12 [zonisamide, 1,2-benzisoxazole-3-methanesulfonamide] |  |  |  |  |  |  | inhibits |  | no impact | significantly delayed | reduced the loss of nigral TH-positive neurons | attenuating the associated striatal dopamine depletion | increased | improved | improve motor symptoms | prevented the loss of nigral dopamine neurons |
